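Tested at 5 concentrations; 48 h exposure; 96-well plates; endpoints linearly interpolated, else capped at highest concentration. At the GI50, growth is halved. TGI denotes the concentration required for complete inhibition of growth.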 Bounds are passed on as bounds.

Some test systems named below: COLO 205 colon; HL-60(TB) leukemia; SNB-75 CNS; SW-620 colon; NCI/ADR-RES ovarian; OVCAR-3 ovarian; OVCAR-8 ovarian; NCI-H522 lung; BT-549 breast; SK-MEL-28 melanoma.
Holding throughout (assay): inhibition of tumour cell growth, NCI panel, 48 h

Regarding `Cc1cc(NCCCNc2ccnc3cc(Cl)ccc23)nc(N2CCN(C)CC2)n1`, the GI50 in the experiment on COLO 205 colon was 2280 nM; with HL-60(TB) leukemia, 2.99 µM; with SNB-75 CNS, 13 µM; in the experiment on SW-620 colon, 2620 nM; with NCI/ADR-RES ovarian, 17.5 µM; in the experiment on OVCAR-3 ovarian it was 5.79 µM. Moreover, the GI50 with OVCAR-8 ovarian was 7.76 µM; in the experiment on NCI-H522 lung, 2430 nM; in the experiment on BT-549 breast, 13.1 µM; in the experiment on SK-MEL-28 melanoma it was 1840 nM. Further, the TGI with COLO 205 colon was 6.29 µM; in the experiment with HL-60(TB) leukemia, 9.06 µM; in the experiment on SNB-75 CNS it was 34.4 µM; in the experiment with SW-620 colon it was 17.5 µM; with NCI/ADR-RES ovarian, 61.7 µM; with OVCAR-3 ovarian, 25.7 µM. The TGI stood at 44 µM in the experiment on OVCAR-8 ovarian, 11.1 µM in the experiment on NCI-H522 lung, 53.3 µM with BT-549 breast and 3.67 µM in the experiment on SK-MEL-28 melanoma.

Consider `CC/C(=C(/c1ccc(OCCN(C)C)cc1)c1ccc(OC(=O)CCC(=O)c2c(C)[nH]c(/C=C3\N=C(c4ccc[nH]4)C=C3OC)c2C)cc1)c1ccccc1`, for which the GI50 with COLO 205 colon was 1900 nM; in the experiment with HL-60(TB) leukemia it was 3.13 µM; with SNB-75 CNS it was 2.45 µM; with SW-620 colon, 760 nM; in the experiment with NCI/ADR-RES ovarian it was 3.62 µM; with OVCAR-3 ovarian, 2.08 µM. For the same compound, the GI50 in the experiment on OVCAR-8 ovarian was 2.73 µM; in the experiment with NCI-H522 lung it was 1880 nM; in the experiment on BT-549 breast, 3.5 µM; with SK-MEL-28 melanoma it was 2890 nM. The TGI in the experiment with COLO 205 colon was 7.24 µM; in the experiment on HL-60(TB) leukemia, 8.8 µM; in the experiment with SNB-75 CNS, 9.86 µM; with SW-620 colon, 2.57 µM; in the experiment on NCI/ADR-RES ovarian, 15.9 µM; in the experiment with OVCAR-3 ovarian it was 10.3 µM. For the same compound, the TGI in the experiment with OVCAR-8 ovarian turned out to be 10.3 µM; in the experiment on NCI-H522 lung it was 5.38 µM; in the experiment with BT-549 breast it was 20.4 µM; in the experiment with SK-MEL-28 melanoma, 12.4 µM.

On to `CCN1/C(=C/C=C/c2n(-c3ccccc3)c3ccc(-c4nc5ccccc5s4)cc3[n+]2CC)N(c2ccccc2)c2ccc(-c3nc4ccccc4s3)cc21`, for which the GI50 in the experiment on COLO 205 colon was 187 nM; with HL-60(TB) leukemia it was 0.464 µM; with SNB-75 CNS it was 0.347 µM; in the experiment on SW-620 colon, 445 nM; in the experiment with NCI/ADR-RES ovarian, 3.55 µM; in the experiment with OVCAR-3 ovarian it was 1.01 µM. For the same compound, the GI50 with OVCAR-8 ovarian was 0.304 µM; in the experiment with NCI-H522 lung, 585 nM; in the experiment on BT-549 breast, 0.5 µM; in the experiment with SK-MEL-28 melanoma, 488 nM. Further, the TGI was 0.919 µM in the experiment with COLO 205 colon; more than 50 µM in the experiment on HL-60(TB) leukemia; more than 46.7 µM with SNB-75 CNS; more than 50 µM in the experiment with SW-620 colon; more than 50 µM in the experiment on NCI/ADR-RES ovarian; 10.3 µM in the experiment with OVCAR-3 ovarian. Besides, the TGI in the experiment with OVCAR-8 ovarian was found to be 5.82 µM; in the experiment on NCI-H522 lung it was 3.41 µM; with BT-549 breast it was 3.28 µM; in the experiment on SK-MEL-28 melanoma, 5.82 µM.

On to `O=C1CC(c2cccc(O)c2)C2(C(=O)NC(=S)NC2=O)C(c2cccc(O)c2)C1` (stereo not given), for which the GI50 in the experiment on COLO 205 colon is more than 100000 nM; in the experiment with HL-60(TB) leukemia it was more than 100 µM; with SNB-75 CNS, more than 100 µM; in the experiment with SW-620 colon it was more than 100000 nM; in the experiment on NCI/ADR-RES ovarian, more than 100 µM; in the experiment on OVCAR-3 ovarian, more than 100 µM. In addition, the GI50 was more than 100 µM in the experiment on OVCAR-8 ovarian, more than 100000 nM in the experiment with NCI-H522 lung, more than 100 µM in the experiment with BT-549 breast and more than 100000 nM with SK-MEL-28 melanoma. The TGI in the experiment on COLO 205 colon, with HL-60(TB) leukemia, in the experiment with SNB-75 CNS, with SW-620 colon, in the experiment on NCI/ADR-RES ovarian and in the experiment on OVCAR-3 ovarian was more than 100 µM in each case. Further, the TGI in the experiment on OVCAR-8 ovarian, in the experiment with NCI-H522 lung, in the experiment on BT-549 breast and in the experiment on SK-MEL-28 melanoma was more than 100 µM each time.

`Fc1ccc(-c2nn3c(-c4ccc(F)c(Cl)c4)nnc3s2)cc1`: the GI50 in the experiment on COLO 205 colon is more than 50000 nM; with HL-60(TB) leukemia it was 27.4 µM; with SNB-75 CNS it was 11.3 µM; with SW-620 colon, more than 50000 nM; with NCI/ADR-RES ovarian it was 23.8 µM; in the experiment with OVCAR-3 ovarian, more than 50 µM. Further, the GI50 in the experiment with OVCAR-8 ovarian was 37.1 µM; in the experiment on NCI-H522 lung it was 20800 nM; in the experiment with BT-549 breast, 33.2 µM; with SK-MEL-28 melanoma, more than 50000 nM. In addition, the TGI with COLO 205 colon is more than 50 µM; in the experiment with HL-60(TB) leukemia it was more than 50 µM; in the experiment on SNB-75 CNS, 30.4 µM; in the experiment on SW-620 colon it was more than 50 µM; in the experiment with NCI/ADR-RES ovarian, more than 50 µM; with OVCAR-3 ovarian, more than 50 µM. For the same compound, the TGI in the experiment with OVCAR-8 ovarian, with NCI-H522 lung, with BT-549 breast and in the experiment with SK-MEL-28 melanoma was more than 50 µM each time.

`CC1=C(/C=C/C(=O)O)C(C)(C)CCC1`: the TGI with COLO 205 colon, in the experiment on HL-60(TB) leukemia, with SNB-75 CNS, with SW-620 colon, in the experiment on NCI/ADR-RES ovarian and in the experiment on OVCAR-3 ovarian was more than 100 µM each time. In addition, the TGI in the experiment on OVCAR-8 ovarian, in the experiment on NCI-H522 lung, in the experiment on BT-549 breast and in the experiment with SK-MEL-28 melanoma was more than 100 µM throughout.

(Values after PubChem BioAssay (NCI).)
